Reference: patent US8242148B2 (priority 2005, dated 2012)
Entries after “also recorded” stand apart in the source; their conditions may differ. Where a name gives a salt, the structure may show the parent alone. Read-outs that look alike come from different tables or passages of the source.

Experiments:
[1] = Plasma pharmacokinetics of 2-pyridylacetic acid after betahistine hydrochloride (LC/MS/MS); conditions: for Terminal elimination rate / Cmax: mean ± SD; for AUC(0-t) / Tmax / half-life / Cmax: plasma
Method: Blood samples for pharmacokinetic analysis were collected just prior to study drug dosing, and at 0.5, 1, 1.5, 2, 3, and 4 hours. Samples (5 ml) were collected in tubes containing EDTA and were placed on ice after gentle shaking. Samples were centrifuged within 15 min at 4° C. at 3000×g for 10 min and plasma was separated into polypropylene tubes. Plasma was stored at −70° C. until further analysis.
Plasma samples were analyzed using a validated liquid chromatography tandem mass spectroscopy (LC/MS/MS) as reported by Chen et al. with minor modifications. To 500 μL of plasma, 100 μL of 0.5 M orthophosphoric acid (H3PO4) was added. The mixed sample was extracted with 5 ml of ethyl acetate and 2-propanol mixture (97.5:2.5, v/v) and vortex-mixed thoroughly for 1 min. Sample was centrifuged at 2000×g for 10 min maintained at 4° C., the upper clear portion was carefully transferred to a glass tube and evaporated to dryness under nitrogen gas at 25° C. The residue was reconstituted with 100 μL of mobile phase and filtered using a Sep-pak® (Waters) SPE cartridges which was pre-equilibrated with mobile phase. The processed samples were analyzed using a liquid chromatography equipped with a Surveyor autosampler model Plus and a Surveyor quaternary gradient HPLC-pump (Thermo Fisher Scientific) connected to a linear ion trap-Fourier Transform LTQ-FT™ mass spectrometer operated in positive ion electrospray mode.
Plasma concentration-time profile data were used to calculate Cmax, time to achieve Cmax (Tmax), terminal elimination half-life (T1/2), area under the plasma concentration-time curve from zero to last measurable time point (AUC0-t). The half life (T1/2) was calculated as 0.693/λz, where λz is the terminal-phase elimination rate constant. AUC0-t was calculated using the linear trapezoidal rule area under the curve (AUC0-t) from time zero to the time of the last measurable concentration (CT) at 4 hrs (last measurable time point).

[2] = tested on: histamine H3 autoreceptors; conditions: cats, oral, cited from earlier work
[3] = humans, cited from earlier work
ADHD adults [4] = assay: ECG parameters (QT, QTc) after single-dose betahistine in ADHD adults; format: in vivo, human; conditions: for QT Baseline / QTc Baseline: baseline (pre-dose); for QT 2 hours / QTc 2 hours: 2 hours post-dose
Excerpt: (§1) Subjects were randomly assigned to active drug, dose, and/or placebo using a modified Latin Square design. Safety measures, including vital signs, electrocardiogram, peak respiratory flow, clinical laboratory tests, and logging of adverse events were observed.
(§2) Those AEs which accounted for >10% of the total were headache (n=11), fatigue (n=8), somnolence (n=8) and dizziness (n=4). […] The ECG data is summarized in Table 1 and categorized as benign.
Throughout the study, two subjects experienced a conversion of their baseline ECG from normal to abnormal but not clinically significant two hours following a dose of study drug betahistine. […] Each of these abnormal ECGs were not repeated in these same subjects with other doses of betahistine.

[5] = tested on: patients with multiple sclerosis; conditions: cited from earlier work
rats = conditions: cited from earlier work
healthy volunteers = conditions: cited from earlier work
ADHD adults [6] = assay: Heart rate and blood pressure change from baseline; format: in vivo, human
Excerpt: as §1
Changes from baseline in heart rate and BP were not dose dependent, nor were changes in these cardiovascular parameters by dose appreciably different from the placebo condition.

[7] = animal studies, peripheral administration; cited from earlier work
HPA axis [8] = assay: Cortisol response / HPA axis activity in rats; format: in vivo, rat
Excerpt: Certain subtypes of depression have been associated with decreased function of the hypothalamic-pituitary-adrenal (HPA) axis as evidenced by low cortisol and/or decreased CRH and ACTH levels.

ADHD adults [9] = assay: Continuous Performance Task (CPT) signal detection, A prime and B prime; format: in vivo, human
Excerpt: Subjects were randomly assigned to active drug, dose, and/or placebo using a modified Latin Square design. Safety measures, including vital signs, electrocardiogram, peak respiratory flow, clinical laboratory tests, and logging of adverse events were observed. […] Instead, the study used surrogate markers of ADHD efficacy which are widely accepted, such as the signal detection (A prime) measures from the Continuous Performance Task (CPT) and a Go-no-Go task. Improvements or enhanced signal detection for either of these tasks track well with clinical improvements measuring ADHD symptom severity and frequency. (Epstein et al., Relations Between Continuous Performance Test Performance Measures and ADHD Behaviors, J. of Abnormal Child Psych. 31:5, 543-54 (2001)). […] To reflect this design, the study was analyzed using a repeated-measures analysis of variance (ANOVA) model (in SAS version 9.2, using the MIXED procedure). Treatment (4 levels: 0, 50, 100, 200) and Period (3 levels) and their interaction were included as fixed within-subject factors. In the case of signal detection measures, measures over three repeated blocks in each of three sessions were averaged to produce a summary measure for that session. Sessions were performed prior to drug administration and at two and four hours post-administration. A third within-subject factor (time since drug administration in hours; 0, 2, and 4 hours) was included along with its interactions with the treatment and period effects. A compound-symmetry structure was assumed for the correlation pattern of the within-subject residuals (equivalent to allowing each subject to have an individual intercept term to account for correlation among repeat measures on the same subject). Principle hypothesis tests were comparisons of the average of the non-zero doses against the placebo, as well as comparisons of each individual non-zero dose versus placebo. These were performed as linear contrasts, two-sided, α=0.05.

[10] = tested on: patients with cerebrovascular dementia; conditions: placebo-controlled trials; cited from earlier work
[11] = tested on: adult human subjects having ADHD; conditions: in vivo
Excerpt: as §1
There were 39 total adverse events (AEs) across 16 total subjects, of which 12/16 accounted for all 39 reports. Only 16/39 AEs were rated as moderate in severity. […] Of the 39 total AEs, 21/39 were judged by the investigator to be possibly related to study drug based primarily on proximity (within 3 hours) to study drug administration. Only 3/39 AEs were judged as probably related to study drug and consisted of orthostasis, drowsiness and agitation. All adverse events resolved within 24 hours of the visit and most resolved by the end of each study visit (each visit lasting 5-6 hours). One subject experienced orthostatic hypotension at 1 hour following study drug administration on two separate occasions (Visit 1 (rated as mild) and Visit 3 (rated as moderate), the later judged to be probably study drug-related.
as §2

ADHD adults [12] = assay: Pulmonary function (forced expiratory volume); format: in vivo, human
Method: as §1
All pulmonary function readings were analyzed by a board certified pulmonologist and no report was rated clinically significant.

ADHD adults [13] = assay: Satiety Quotient (surrogate marker of appetite suppression); format: in vivo, human; conditions: RMANOVA, treatment 0, 50, 100, 200 mg
Excerpt: Instead, the study used surrogate markers of ADHD efficacy which are widely accepted, such as the signal detection (A prime) measures from the Continuous Performance Task (CPT) and a Go-no-Go task. Improvements or enhanced signal detection for either of these tasks track well with clinical improvements measuring ADHD symptom severity and frequency. (Epstein et al., Relations Between Continuous Performance Test Performance Measures and ADHD Behaviors, J. of Abnormal Child Psych. 31:5, 543-54 (2001)). […] To reflect this design, the study was analyzed using a repeated-measures analysis of variance (ANOVA) model (in SAS version 9.2, using the MIXED procedure). Treatment (4 levels: 0, 50, 100, 200) and Period (3 levels) and their interaction were included as fixed within-subject factors.

[14] = tested on: histamine release in the anterior hypothalamus; conditions: rats; cited from earlier work
HPA axis [15] = conditions: mice; cited from earlier work
[16] = after 100 mg betahistine hydrochloride
[17] = RMANOVA, treatment 0, 50, 100, 200 mg
[18] = RMANOVA, treatment 0, 50, 100, 200 mg, DF 3/29

For O=C(O)Cc1ccccn1 [2-pyridylacetic acid], the “Half-life and Tmax across the dose levels” value ([1]; 50, 100, 200 mg betahistine) was “remained unchanged”, the Terminal elimination rate ([1]; after 50 mg betahistine hydrochloride) was 0.43 ± 0.35 h⁻¹ and the Terminal elimination rate [1, 16] was 0.25 ± 0.18 h⁻¹. It also gave a Terminal elimination rate ([1]; after 200 mg betahistine hydrochloride) of 0.28 ± 0.17 h⁻¹, an AUC(0-t) ([1]; human, 50 mg) of 1300 ± 587 ng·h/mL and a Tmax ([1]; human, 50 mg) of 1.55 ± 0.44 h. The half-life ([1]; human, 50 mg) was 4.24 ± 1.68 h, the Cmax ([1]; human, 50 mg, Cmax, after 50 mg betahistine hydrochloride) was 611 ± 490 ng/mL and the AUC(0-t) ([1]; human, 100 mg) was 2780 ± 1840 ng·h/mL. It also gave a Tmax ([1]; human, 100 mg) of 1.3 ± 0.35 h, a half-life ([1]; human, 100 mg) of 3.74 ± 1.97 h and a Cmax ([1]; human, 100 mg, Cmax, after 100 mg betahistine hydrochloride) of 1040 ± 673 ng/mL. The AUC(0-t) ([1]; human, 200 mg) was 5250 ± 2430 ng·h/mL, the Tmax ([1]; human, 200 mg) was 2.05 ± 0.86 h and the half-life ([1]; human, 200 mg) was 3.88 ± 3.38 h. For the same molecule, the Cmax ([1]; human, 200 mg, Cmax, after 200 mg betahistine hydrochloride) was 2040 ± 905 ng/mL and the Cmax [1, 16] was 1043.88 ± 673.49 ng/mL.
In the case of CNCCc1ccccn1 [betahistine dihydrochloride], the “Dose required for rapid biological effect on histamine H3 autoreceptors” value ([2]; relative to human-equivalent 24-48 mg/day) is listed as 5 fold and 10 fold higher equivalent doses were required.
In the case of CNCCc1ccccn1.CS(=O)(=O)O.CS(=O)(=O)O [betahistine mesylate], the Bioavailability ([3]; oral) is given as “less than 1%”.
In the case of CNCCc1ccccn1 [betahistine], the “ECG data, category” value (ADHD adults [4]; 50, 100, 200 mg) is reported as “benign”, the “QT Baseline” value (ADHD adults [4]; betahistine 50 mg group) is reported as 416 ± 33 ms and the “QTc Baseline” value (ADHD adults [4]; betahistine 50 mg group) is reported as 416 ± 18 ms. For the same molecule, the “QT 2 hours” value (ADHD adults [4]; betahistine 50 mg) was 403 ± 26 ms, the “QTc 2 hours” value (ADHD adults [4]; betahistine 50 mg) was 407 ± 18 ms and the “QT Baseline” value (ADHD adults [4]; betahistine 100 mg group) was 412 ± 27 ms. For the same molecule, the “QTc Baseline” value (ADHD adults [4]; betahistine 100 mg group) was 409 ± 13 ms, the “QT 2 hours” value (ADHD adults [4]; betahistine 100 mg) was 395 ± 37 ms and the “QTc 2 hours” value (ADHD adults [4]; betahistine 100 mg) was 401 ± 14 ms. The “QT Baseline” value (ADHD adults [4]; betahistine 200 mg group) was 403 ± 37 ms, the “QTc Baseline” value (ADHD adults [4]; betahistine 200 mg group) was 410 ± 18 ms and the “QT 2 hours” value (ADHD adults [4]; betahistine 200 mg) was 400 ± 34 ms. For the same molecule, the “QTc 2 hours” value (ADHD adults [4]; betahistine 200 mg) was 405 ± 17 ms, the “QT and rate corrected QTc (Bazett's) change from baseline” value (ADHD adults [4]; betahistine 50, 100, 200 mg vs placebo (FIG. 1)) was “No clinically significant change” and the “Abnormal ECGs, clinical significance” value (ADHD adults [4]; two subjects abnormal but NCS at 2 hours (200 mg, 50 mg)) was “no abnormal ECGs were read as clinically significant”. The Symptoms of fatigue [5] was “statistically significant reduction”, the Eating behavior (rats) was “decrease eating behavior in rats in a dose-dependent manner” and the “Effects on arousal and vigilance” value (healthy volunteers; 32 mg dose vs placebo) was “no effect; also recorded: no noticeable CNS-stimulating effects”. The “Effects on arousal and vigilance” value (healthy volunteers; single dose 64 mg vs placebo) was “greater than those observed with placebo; also recorded: only mild stimulant-like effects”, the “Biologic half-life, mean” value [3] was 5 hours and the “Biologic half-life, variability” value [3] was 2-11 hours. The “Heart rate and blood pressure effects” value (ADHD adults [6]; 50, 100, 200 mg, not dose dependent) was “minimal and judged as not clinically significant”, the “Change in systolic blood pressure from baseline” value (ADHD adults [6]; betahistine 50, 100, 200 mg vs placebo (FIG. 2)) was “No clinically significant change” and the “Change in diastolic blood pressure from baseline” value (ADHD adults [6]; betahistine 50, 100, 200 mg vs placebo (FIG. 3)) was “No clinically significant change”. The “CNS concentration relative to plasma levels” value [7] was “approximately half”, the “Cortisol response to stress” value (HPA axis [8]) was “increases the cortisol response to stress” and the “Effect on decrease in cortisol after dexamethasone administration” value (HPA axis [8]) was “counteracts the decrease in cortisol”. The “APRIME_CPT, Treatment effect, Pr > F” value (ADHD adults [9]; [17]) was 0.0254, the “BPRIME_CPT, Treatment effect, Pr > F” value (ADHD adults [9]; [17]) was 0.0045 and the “APRIME_CPT, Treatment effect, F Value” (ADHD adults [9]; [18]) was 3.59. The “BPRIME_CPT, Treatment effect, F Value” (ADHD adults [9]; [18]) was 5.38, the “Effect on attention (CPT sensitivity and inhibition)” value (ADHD adults [9]; adults with ADHD, single doses up to 200 mg) was “improves attention” and the “CPT A prime, effect vs placebo” value (ADHD adults [9]; betahistine vs placebo) was “demonstrated a treatment effect compared to placebo”. The “Motor activity and cognitive functioning” value [10] was “increase motor activity and improve cognitive functioning”, the “AEs judged possibly related to study drug” value ([11]; human) was 21/39 and the “AEs judged probably related to study drug” value ([11]; human) was 3/39. For the same molecule, the “AEs rated as moderate in severity” value ([11]; human) was 16/39, the Total adverse events ([11]; human) was 39 and the “AEs reported as severe” value [11] was “No AEs were reported as severe”. The “Relationship between frequency or severity of AEs and dose” value [11] was “no relationship”, the “Effect on airway compliance and/or pulmonary function” value (ADHD adults [12]; FEV 25-75 at four hour post-dose) was “minimal or no effect” and the “Change in forced expiratory volume in 1 second (FEV) from baseline” value (ADHD adults [12]; betahistine vs placebo (FIG. 4)) was “No clinically significant change”. The “Biologic effects on brain histamine or histamine H3 receptors” value ([2]; roughly the human dose (48 mg/day)) was “no biologic effects”, the “Satiety Quotient - 2 hrs, Treatment effect, Pr > F” value (ADHD adults [13]) was 0.4475 and the “Satiety Quotient - 4 hrs, Treatment effect, Pr > F” value (ADHD adults [13]) was 0.8360. For the same molecule, the “Satiety Quotient - 2 hrs, Treatment effect, F Value” (ADHD adults [13]; DF 3/21) was 0.92 and the “Satiety Quotient - 4 hrs, Treatment effect, F Value” (ADHD adults [13]; DF 3/21) was 0.28.
For NC(=O)C[S+]([O-])C(c1ccccc1)c1ccccc1 (centres unmarked) [modafinil], the Hypothalamic histamine release [14] is given as “increase hypothalamic histamine release”.
In the case of NNCCc1ccccc1 [phenelzine], the Cortisol levels (HPA axis [15]) is given as “increases cortisol levels”.
